Measured values as given in patent publication US8859284B2, “Delivery of nanoparticles to neurons” (The United States of America, as represented by the …, priority 2009, dated 2014).
Square brackets hold non-standard residues; d marks the D form. Ends that are not written are not given here. * marks the point of attachment. Farnesyl = CC(C)=CCC/C(C)=C/CC/C(C)=C/C*; Palmitoyl = CCCCCCCCCCCCCCCC(=O)*; Dapaa = not defined here; Dapdi = not defined here; Dab = NCC[C@H](N)C(=O)O; Dap = NC[C@H](N)C(=O)O; Kh = not defined here; bi = not defined here; Aib = CC(C)(N)C(=O)O

Tested on: COS-1 cells
Experiment: Cellular uptake and endosomal escape of QD-peptide assemblies, fluorescence microscopy
Type: cell-based, African green monkey
Conditions: for % Escape in cells with uptake: QD-peptide assemblies; for Overall uptake/escape: uptake: first word of the cell; for Overall uptake/escape: escape: second word of the cell; for intracellular distribution of QD-peptide assemblies: COS-1, 1 hr incubation, 24 hr culture
Description: Merged images were generated using Adobe PhotoShop.
The peptide assemblies were incubated with COS-1 cells for 1 hr, removed, and the cells were subsequently cultured for 24 hr prior to fixation. An AlexaFluor 647-transferrin (Tf) conjugate was included during the incubation to label the vesicles of the endocytic pathway. Cell nuclei were stained with DAPI.

| Substance | % Escape in cells with uptake (COS1 cells) [%] | Overall uptake/escape: uptake (COS1 cells) | Overall uptake/escape: escape (COS1 cells) | intracellular distribution of QD-peptide assemblies | QD/TAMRA colocalized (integrity) (COS1 cells, printed in the % QD uptake column) [%] | % QD uptake (n), result in words (COS1 cells, cell continues in r20 'localized') |
| --- | --- | --- | --- | --- | --- | --- |
| (H)6GG(P)9VKIKKDapaGW (HHHHHHGGPPPPPPPPPVKIKK[Dap](Palmitoyl)GW) [JB860] | 60 | Moderate | moderate |  |  |  |
| (H)6GG(P)9WGDapaVKIKK (HHHHHHGGPPPPPPPPPWG[Dap](Palmitoyl)VKIKK) [JB859] | 17 | Moderate | low |  |  |  |
| AcG(Pal)DapVKIKK P9GG H6 (Ac-G[Dap](Palmitoyl)VKIKKPPPPPPPPPGGHHHHHH) [Palm-1b] |  |  |  | largely well dispersed throughout the cytoplasm |  |  |
| AcG(Pal)DapVKIKKGLAAAAGG H6 (Ac-G[Dap](Palmitoyl)VKIKKGLAAAAGGHHHHHH) [Palm-2b] |  |  |  | nearly entirely sequestered within endosomes |  |  |
| AcG(Pal)DapVKIKKGLAPAAGG H6 (Ac-G[Dap](Palmitoyl)VKIKKGLAPAAGGHHHHHH) [Palm-3b] |  |  |  | nearly entirely sequestered within endosomes |  |  |
| KETWWETWWTEWSQPKKKRKVSGAibAAAGG(H)6 (KETWWETWWTEWSQPKKKRKVSG[Aib]AAAGGHHHHHH) [JB719, Chariot peptide, reference compound] | 43 | Moderate | moderate |  |  |  |
| KhGDapaVKIKK(P)9GG(H)6 ([Kh]G[Dap](Palmitoyl)VKIKKPPPPPPPPPGGHHHHHH; reading uncertain; also: N-terminal modifications) [JB867] |  |  |  |  | >90 |  |
| VKIKKWGDapa(P)9GG(H)6 (VKIKKWG[Dap](Palmitoyl)PPPPPPPPPGGHHHHHH) [JB862] | 9 | Low | low |  |  |  |
| WGCcVKIKK(P)9GG(H)6 [JB589] | 50 | Low | moderate |  |  |  |
| WGCgVKIKK(P)9GG(H)6 (WGC(Farnesyl)VKIKKPPPPPPPPPGGHHHHHH; not fully specified) [JB872] | 79 | High | high |  |  |  |
| WGDabaVKIKK(P)9GG(H)6 (WG[Dab](Palmitoyl)VKIKKPPPPPPPPPGGHHHHHH) [JB858] |  |  |  |  |  | Membrane |
| WGDapVKIKK(P)9GG(H)6 (WG[Dap]VKIKKPPPPPPPPPGGHHHHHH) [JB579] | 29 | Low | low |  |  |  |
| WGDapVRL(P)3VRL(P)3VRL(P)3GG(H)6 (WG[Dap]VRLPPPVRLPPPVRLPPPGGHHHHHH) [JB868] | 18 | Moderate | low |  |  |  |
| WGDapVRRRIRR(P)9GG(H)6 (WG[Dap]VRRRIRRPPPPPPPPPGGHHHHHH) [JB585] | 25 | Low | low |  |  |  |
| WGDapa(P)9GG(H)6 (WG[Dap](Palmitoyl)PPPPPPPPPGGHHHHHH) [JB578] | 46 | Low | moderate |  |  |  |
| WGDapaGDapaVKIKK(P)9GG(H)6 (WG[Dap](Palmitoyl)G[Dap](Palmitoyl)VKIKKPPPPPPPPPGGHHHHHH) [JB580] | 92 | Low | high |  |  |  |
| WGDapaRRRIRR(P)9GGK [JB588] | 85 | High | high |  |  |  |
| WGDapaVKIKK(Aib)9GG(H)6 (WG[Dap](Palmitoyl)VKIKK[Aib][Aib][Aib][Aib][Aib][Aib][Aib][Aib][Aib]GGHHHHHH) [JB747] | 58 | High | moderate |  |  |  |
| WGDapaVKIKK(P)4GG(H)6 (WG[Dap](Palmitoyl)VKIKKPPPPGGHHHHHH) [JB582] |  | None | none |  |  |  |
| WGDapaVKIKK(P)9GGKb [JB728] | 93 | High | high |  |  |  |
| WGDapaVKIKK(P)12GG(H)6 (WG[Dap](Palmitoyl)VKIKKPPPPPPPPPPPPGGHHHHHH) [JB865] | 68 | High | moderate |  |  |  |
| WGDapaVKIKK(P)15GG(H)6 (WG[Dap](Palmitoyl)VKIKKPPPPPPPPPPPPPPPGGHHHHHH) [JB864] | 85 | High | high |  |  |  |
| WGDapaVRL(P)3VRL(P)3VRL(P)3GG(H)6 (WG[Dap](Palmitoyl)VRLPPPVRLPPPVRLPPPGGHHHHHH) [JB869] | 55 | High | moderate |  |  |  |
| WGDapaVRRRIRR(P)9GG(H)6 (WG[Dap](Palmitoyl)VRRRIRRPPPPPPPPPGGHHHHHH) [JB583] | 41 | Low | moderate |  |  |  |
| WGDapaaVKIKK(P)9GG(H)6 (WG[Dapaa]VKIKKPPPPPPPPPGGHHHHHH; reading uncertain) [JB866] | 11 | Moderate | low |  |  |  |
| WGDapdiVKIKK(P)9GG(H)6 (WG[Dapdi]VKIKKPPPPPPPPPGGHHHHHH; reading uncertain) [JB641] | 88 | Moderate | high |  |  |  |
| WGDapeVKIKK(P)9GG(H)6 [JB729] | 84 | High | high |  |  |  |
| WGDapfVKIKK(P)9GG(H)6 [SI09160] | 96 | Moderate | high |  |  |  |
| WdGDapdiVKIKK(P)9GG(H)6 [JB621] | 90 | Low | high |  |  |  |
| biKWGSAibAAALGG(R)10 (bi-KWGS[Aib]AAALGGRRRRRRRRRR; reading uncertain) [JB722, Dye labeled cell penetrating peptide, reference compound] | 1 | Low | low |  |  |  |
